According to patent US9051348B2, “Ginsenoside with anti-cancer activity and the preparation method thereof” (Macau University of Science and Technology, priority 2012, dated 2015):
Where two headings read alike, the source gives them in different places.

What was measured:
[1] = system: panel of 7 tumor cell lines and human normal lung fibroblasts; conditions: previous studies of the inventors, cited from earlier work
[2] = literature [4]; cited from earlier work
osteoclastgenesis = conditions: literature [2]; cited from earlier work
[3] = in cell culture; previous studies of the inventors; cited from earlier work
[4] = system: human normal lung fibroblasts CCD19Lu; test: MTT cytotoxicity assay in CCD19Lu cells; assay type: cell-based
Method: (§1) The novel compound was dissolved in DMSO at final concentration of 100 mmol/L and stored at −20° C. Cytotoxicity was assessed using the 3-(4,5-dimethylthiazol-2-yl)-2,5-diphenyltetrazolium bromide assay as described previously. Several kinds of cells were seeded on 96-well plates, namely MCF-7, 4000 cells; HepG2, 4000 cells; HeLa, 3000 cells; A549, 4000 cells; LLC-1, 3000 cells; H1299, 3000 cells; CCD19Lu, 4000 cells per well. After overnight pre-incubation, the cells were exposed to different concentrations of the novel compound (0.039-100 μmol/L) or control compounds 20(S)-Rh2 and 20(R)-Rh2 for 3 days. Subsequently, 10 μL of MTT reagents was added to each well and incubated at 37° C. for 4 hours followed by the addition of 100 μL solubilization buffer (10% SDS in 0.01 mol/L HCl) and overnight incubation. A585 nm was determined from each well the next day. The percentage of viable cells was calculated using the following formula: Cell viability (%)=Atreated/Acontrol×100. Data was obtained from three independent experiments.

several tumor cell lines = conditions: literature [2], cited from earlier work
[5] = system: lung cancer cells (LLC-1); test: MTT cytotoxicity assay in LLC-1 cells; assay type: cell-based, mouse
Method: as §1

[6] = Sub-chronic lethal dose study, 7-day repeated oral dosing; assay type: in vivo, male C57BL/6J mice; conditions: 160 and 320 mg/kg/day oral, 7-day treatment
Method: 10 male C57BL/6J mice were divided into two treatment groups, i.e. 160 mg/kg/day and 320 mg/kg/day. The novel compound powder was dissolved with PEG400:ethanol:distilled water in a ratio of 60%:10%:30% (v/v/v), and orally administrated to mice by gavage feeding at doses of 160 and 320 mg/kg/day for 7 consecutive days. The health condition of the animals was monitored and their body weights were recorded during this 7 days treatment duration.

[7] = system: other five cancer cell lines (MCF-7, HepG2, HeLa, A549, H1299); assay type: cell-based
Method: as §1

[8] = Acute oral toxicity, OECD Test Guideline 423, 14-day; assay type: in vivo, C57BL/6J mice
Method: The acute oral toxicity of the novel compound was evaluated in line with the Organization for Economic Cooperation and Development (OECD) Guideline for Testing Chemicals—Acute Oral Toxicity—Acute Toxic Class Method (Test Guideline 423, Adopted on 17 Dec. 2001). Based on the result of Example 4, the Test Procedure with a Starting Dose of 2000 mg/kg (Annex 2d of OECD 423) was selected to evaluate the acute toxicity of the novel compound. In the test, 3 female and 3 male C57BL/6J mice (SPF grade) were fasted overnight and then orally administrated by gavage feeding with single dose of the novel compound solution at 2000 mg/kg.

[9] = MTT cytotoxicity assay in CCD19Lu cells; assay type: cell-based, human; conditions: human
Method: as §1

LLC-1 tumor = assay type: in vivo, male C57BL/6J mice; conditions: for suppression on the tumor growth: 21-day treatment, vs vehicle
Method: The LLC-1 cells harvested from in vitro culture were adjusted to a concentration of 1.5×10^7/mL and 0.1 mL cell suspension was injected subcutaneously into the dorsal region of the male C57BL/6J mice. Subsequently, when 70% of mice had developed tumor into a volume (length×width^2×0.52) larger than 50 mm^3, the animals were randomly divided into the vehicle control and several treatment groups. The novel compound powder was dissolved with PEG400:ethanol:distilled water in a ratio of 60%:10%:30% (v/v/v), and orally administrated to mice by gavage feeding at doses of 10, 20, 40 and 80 mg/kg/day for 21 consecutive days. Oral administration of 80 mg/kg/day 20(R)-Rh2, 20(S)-Rh2 and 20(S)-Rg3, and 10 mg/kg/day 5-Fu were designed as control groups. In order to make sure all groups were appropriately blended, all the experimental procedures such as subcutaneous tumor cells injection, treatment and tumor size measurement were performed by three individual persons who were blended for animal group identity.

## CC(C)=CCC[C@@](C)(O)[C@H]1CC[C@]2(C)[C@@H]1[C@H](O)C[C@@H]1[C@@]3(C)CC[C@H](O[C@@H]4O[C@H](CO)[C@@H](O)[C@H](O)[C@H]4O)C(C)(C)[C@@H]3CC[C@]12C [20(R)-Rh2, 20(R)-ginsenoside Rh2]
[1]; in cell culture
  concentration up to which no cytotoxic effect: > 100 µM
[2]
  intestinal absorption (in words): lower absorption profiles
osteoclastgenesis
  osteoclastgenesis inhibition (in words): selective osteoclastgenesis inhibitor
[3]
  solubility (in words): poor solubility
[4]; CCD19Lu cells, MTT, 3 days exposure
  cytotoxicity (in words): no cytotoxicity
Several tumor cell lines
  cell cytotoxicity (in words): without any cell cytotoxicity
[5]; LLC-1 cells, MTT, 3 days exposure
  cytotoxicity (in words): no cytotoxicity

## CC(C)(O)C1CC[C@](C)(C2CC[C@]3(C)C2[C@H](O)CC2[C@@]4(C)CC[C@H](O[C@@H]5OC(CO)[C@@H](O)C(O)C5O)C(C)(C)C4CC[C@]23C)O1 (stereo partly drawn) [novel compound]
[6]
  animal survival: 100%
  body weight: no significant drop of body weight
[7]
  cytotoxic potency (in words): dose-dependent cytotoxic potency
[8]; acute oral toxicity, OECD Test Guideline 423
  Globally Harmonized Classification System (GHS) class: Class 5 or unclassified
[8]; both sexes, C57BL/6J, mouse, in vivo, 2000 mg/kg, oral, mice, estimated per OECD Test Guideline 423 criteria
  LD50 at 14 days: > 5000 mg/kg
[8]; single oral dose 2000 mg/kg, 14 days
  body weight and sign of toxicity: no significant drop of body weight and sign of toxicity
[8]; single oral dose 2000 mg/kg, 14 days, both gender
  animal death: zero animal death
[9]
  IC50 at 3 days: > 100 µM
[5]; Mus musculus, LLC1, 72 h, read-out: cytotoxic effect, IC50
  IC50: 56 µM
LLC-1 tumor; 10 mg/kg/day oral, P>0.05
  suppression on the tumor growth: 35.24%
LLC-1 tumor; 20 mg/kg/day oral, P>0.05
  suppression on the tumor growth: 40.49%
LLC-1 tumor; 40 mg/kg/day oral, P<0.05
  suppression on the tumor growth: 44.9%
LLC-1 tumor; 80 mg/kg/day oral, P<0.01
  suppression on the tumor growth: 52.04%
LLC-1 tumor; mouse, in vivo, po
  adverse impacts on the major organs and body weight: without observable adverse impacts

## CC(C)=CCC[C@](C)(O)[C@H]1CC[C@]2(C)[C@@H]1[C@H](O)C[C@@H]1[C@@]3(C)CC[C@H](O[C@@H]4O[C@H](CO)[C@@H](O)[C@H](O)[C@H]4O)C(C)(C)[C@@H]3CC[C@]12C [Rh2, Ginsenoside Rh2]
[2]
  intestinal absorption (in words): poor intestinal absorption
  permeability (in words): poor permeability

## CC(C)=CCC[C@](C)(O)[C@H]1CC[C@]2(C)[C@@H]1[C@H](O)C[C@@H]1[C@@]3(C)CC[C@H](O[C@@H]4O[C@H](CO)[C@@H](O)[C@H](O)[C@H]4O)C(C)(C)[C@@H]3CC[C@]12C [20(S)-Rh2]
[1]; panel of 7 tumor cell lines and human normal lung fibroblasts, read-out: cytotoxicity, IC50
  IC50: 45 to 65 µM
[4]
  IC50: 80.5 µM
Several tumor cell lines; several tumor cell lines, read-out: cytotoxicity, IC50
  IC50: 22 to 50 µM
[5]
  IC50: 46.5 µM
